Results published in patent US20030060438A1, “Oligonucleotides and other modulators of the NK-1 receptor pathway and therapeutic uses thereof” (priority 2000, published 2003).

Tested on: NK-1 receptor
Experiment: Formalin test, systemic (intraperitoneal) oligonucleotide
Format: in vivo, rat
Conditions: 300 micro grams/kg, Q12 h, 6 days prior to testing, vs saline
Description: The formalin test produces a biphasic nociceptive behavior that lasts up to one hour that is believed to represent a tonic, persistent pain. The index of nociceptive behavior is assessed based a weighted pain intensity scale, where the animal is given a value of 0 for showing no signs of favoring of the injected paw, 1—favoring of hind paw such that it is resting lightly on the floor, 2—elevation of hind paw, 3—licking or vigorously shaking the hind paw. The numerical ratings were calculated by multiplying the amount of time the rats spent in each category by the weighted factor indicated above for each 5 minute interval over a one hour time period. This was expressed by the following formula: (time spent in category 0*0+time spent in category 1*1+time spent in category 2*2+time spent in category 3*3)/300 seconds. Antisense (AS) oligonucleotide (300 micro grams/kg, Q12 h, intraperitoneal) or saline was administered for 6 days prior to testing. […] Statistical analysis was performed by a two way ANOVA with time and treatment as independent measures. Time: F=9.966, p<0.001, Treatment: F=31.85, p<0.001.

## 5′gac gtt atc cat ttt ggg g3′ (antisense GACGTTATCCATTTTGGGG; listed as DNA, chemistry not fully specified) [NK-1 receptor antisense oligonucleotide used in all experiments]
  formalin-induced nociceptive scores: nociceptive scores are less
